Results published in patent publication US7563788B2, “Substituted Imidazo[1,2-a]pyridines as Antibacterial Agents” (Pfizer Inc., priority 2004, dated 2009).
Values after ≈ are worked out from the molar mass of the structure shown.

Assays:
[1] = test system: Neisseria gonorrhoeae, GC525 (NG-2888); test: In-vitro antibacterial activity, microbroth dilution MIC susceptibility testing; assay type: cell-based; settings: gonococcal broth, 20-24 hours at 35° C., lowest concentration preventing visible growth
Description: The in-vitro antibacterial activity of selected compounds was determined against a stain of Neisseria gonorrhoeae, GC525 (NG-2888), which is described by Rouquette-Loughlin et al, in Journal of Bacteriology, February 2003, p. 1101-1106, at p. 1103. In general, minimum inhibitory concentration (MIC) susceptibility testing followed procedures recommended by the National Committee for Clinical Laboratory Standards (NCCLS^1-2) or followed the descriptions described below:
Neisseria gonorrhoeae strains were grown on Chocolate Agar II plates (BBL—Becton Dickinson Microbiology Systems, Cockeysville, Md.) and incubated at 35° C. in a humidified 5% CO2 incubator (Forma Scientific, Marietta Ohio). For microbroth dilution MIC testing, N. gonorrhoeae were tested in gonococcal broth (GCB):
Bacterial culture identifications were confirmed by standard microbiological methods.^4 N. gonorrhoeae strains were streaked onto appropriate agar plates for visualization of purity and expected colony morphology. Gram stains were also utilized.
Bacterial stock cultures are stored as frozen suspensions at −70° C. N. gonorrhoeae cultures are suspended in inactivated Horse Serum (Colorado Serum Company, Denver, Colo.) containing 7.5% glucose prior to snap freezing in a dry ice/ethanol bath.
Frozen stock cultures were used as the initial source of organisms for performing microbroth dilution MIC testing. Stock cultures were passed on their respective growth medium at least one growth cycle (18-24 hours) prior to their use. Bacterial culture suspensions were prepared directly from Chocolate Agar II plates into 10 mL cation-adjusted Mueller-Hinton Broth (CAMHB, BBL, # BB215069). Before use, cultures were adjusted to an optical density value of […] on a Perkin-Elmer Lambda EZ150 Spectrophotometer (Wellesley, Mass.) set at a wavelength of 600 nm. Random cultures were plated for validation of actual colony counts. The adjusted cultures were diluted 400-fold (0.25 mL inoculum+100 mL GCB) into gonococcal broth producing a starting inoculum of approximately 5×10^5 cfu/mL. These cultures were inoculated into test plates (100 uL/well) using a Biomek® FX workstation (Beckman Coulter Inc., Fullerton, Calif.). The inoculated plates were placed in stacks of no more than 4 and covered with an empty plate. Plates were incubated for 20-24 hours at 35° C. in a humidified CO2 incubator.
Drug stock solutions (2 mg/mL in DMSO) were prepared on the day of testing. Drugs were weight corrected for assay content where necessary.
Microbroth dilution stock plates were prepared in two dilution series, 64-0.06 ug drug/mL and 1-0.001 ug drug/mL. For the high concentration series, 200 uL of stock solution (2 mg/mL) was added to duplicate rows of a 96-well plate. This was used as the first well in the dilution series. Serial two-fold decremental dilutions were made using a BioMek FX robot (Beckman Coulter Inc., Fullerton, Calif.) with 10 of the remaining 11 wells, each of which contained 100 uL of the appropriate solvent/diluent. Row 12 contained solvent/diluent only and served as the control. For tube one of the low concentration series, 200 uL of a 31.25 ug/mL stock was added to duplicate rows of a 96-well plate. Serial two-fold dilutions were made as described above.
Daughter plates were spotted (3.2 uL/well) from the stock plates listed above using the BioMek FX robot and were inoculated with organism (100 uL/well) as described previously.
After incubation, the degree of growth in each well was read visually with the aid of a Test Reading Mirror (Dynatech Lab 220-16, Dynex Technologies, Chantilly, Va.). 96-well test plates are read in a darkened room with a single light shining from above. The MIC is the lowest concentration of drug that prevents macroscopically visible growth under the conditions of the test. Each drug dilution series was tested in duplicate; identical results are not always obtained. If MIC values in duplicate tests differ by 1 well (two-fold), the […] value is reported. […]

SMILES | MIC [1] | melting point
CCNC(=O)Nc1cn2ccc(-c3ccn[nH]3)cc2n1 [Example 38, 1-Ethyl-3-[7-(2H-pyrazol-3-yl)-imidazo[1,2-a]pyridin-2-yl]-urea] | 32 µg/mL (≈ 118 µM) | 292 to 295 °C (dec.)
CCNC(=O)Nc1cn2ccc(-c3cnc(OC)nc3)cc2n1 [Example 4, 1-Ethyl-3-[7-(2-methoxy-pyrimidin-5-yl)-imidazo[1,2-a]pyridin-2-yl]-urea] | 12.7 µg/mL (≈ 40.7 µM) | > 300 °C
CCNC(=O)Nc1cn2ccc(C(=O)N3CCOCC3)cc2n1 [Example 43, 1-Ethyl-3-[7-(morpholine-4-carbonyl)-imidazo[1,2-a]pyridin-2-yl]-urea] | > 64 µg/mL | –
CCNC(=O)Nc1nc2cc(-c3cccnc3)ccn2c1Cl [Example 16, 1-(3-Chloro-7-pyridin-3-yl-imidazo[1,2-a]pyridin-2-yl)-3-ethyl-urea] | 64 µg/mL (≈ 203 µM) | –
CCNC(=O)Nc1cn2ccc(-c3cnn(C)c3)cc2n1 [Example 12, 1-Ethyl-3-[7-(1-methyl-1H-pyrazol-4-yl)-imidazo[1,2-a]pyridin-2-yl]-urea] | 64 µg/mL (≈ 225 µM) | –
CCNC(=O)Nc1cn2ccc(-c3ccnc(OC)c3)cc2n1 [Example 44, 1-Ethyl-3-[7-(2-methoxy-pyridin-4-yl)-imidazo[1,2-a]pyridin-2-yl]-urea] | 16 µg/mL (≈ 51.4 µM) | –
O=C(NCC1CC1)Nc1cn2ccc(-c3cncnc3)cc2n1 [Example 28, 1-Cyclopropylmethyl-3-(7-pyrimidin-5-yl-imidazo[1,2-a]pyridin-2-yl)-urea] | 32 µg/mL (≈ 104 µM) | –
CCNC(=O)Nc1cn2ccc(-c3cncnc3)cc2n1 [Example 8, 1-Ethyl-3-(7-pyrimidin-5-yl-imidazo[1,2-a]pyridin-2-yl)-urea] | 5.66 µg/mL (≈ 20 µM) | –
CCNC(=O)Nc1cn2ccc(-c3noc(C)n3)cc2n1 [Example 22, 1-Ethyl-3-[7-(5-methyl-[1,2,4]oxadiazol-3-yl)-imidazo[1,2-a]pyridin-2-yl]-urea] | > 64 µg/mL | –
CCNC(=O)Nc1nc2cc(-c3cnc(N(C)C)nc3)ccn2c1Cl [Example 17, 1-[3-Chloro-7-(2-dimethylamino-pyrimidin-5-yl)-imidazo[1,2-a]pyridin-2-yl]-3-ethyl-urea] | > 32 µg/mL | –
CCNC(=O)Nc1cn2ccc(C(N)=O)cc2n1 [Example 19, 2-(3-Ethyl-ureido)-imidazo[1,2-a]pyridine-7-carboxylic Acid Amide] | > 64 µg/mL | –
COCCNC(=O)Nc1cn2ccc(-c3cncnc3)cc2n1 [Example 32, 1-(2-Methoxy-ethyl)-3-(7-pyrimidin-5-yl-imidazo[1,2-a]pyridin-2-yl)-urea] | > 64 µg/mL | –

The next lines start with the values.

MIC [1] | melting point | SMILES
> 64 µg/mL | 273 to 279 °C (dec.) | CCOC(=O)Nc1cn2ccc(-c3ccc(OC)nc3)cc2n1 [Example 3A, [7-(6-Methoxy-pyridin-3-yl)-imidazo[1,2-a]pyridin-2-yl]-carbamic Acid Ethyl Ester]
16 µg/mL (≈ 51.4 µM) | 222 to 225 °C (dec.) | CCNC(=O)Nc1cn2ccc(-c3ccc(OC)nc3)cc2n1 [Example 3B, 1-Ethyl-3-[7-(6-methoxy-pyridin-3-yl)-imidazo[1,2-a]pyridin-2-yl]-urea]
16 µg/mL (≈ 49.2 µM) | 259 to 263 °C (dec.) | CCNC(=O)Nc1cn2ccc(-c3cnc(N(C)C)nc3)cc2n1 [Example 2B, 1-[7-(2-Dimethylamino-pyrimidin-5-yl)-imidazo[1,2-a]pyridin-2-yl]-3-ethyl-urea]
> 64 µg/mL | 270 to 280 °C (dec.) | CCOC(=O)Nc1cn2ccc(-c3cnc(N(C)C)nc3)cc2n1 [Example 2A, [7-(2-Dimethylamino-pyrimidin-5-yl)-imidazo[1,2-a]pyridin-2-yl]-carbamic Acid Ethyl Ester]
> 64 µg/mL | – | CCOC(=O)Nc1cn2ccc(-c3cccnc3)cc2n1 [Example 1A, (7-Pyridin-3-yl-imidazo[1,2-a]pyridin-2-yl)-carbamic Acid Ethyl Ester]
